Series [1] concerns SDAT patients and controls. Put plainly: Mental performance and behavior after the GRF test (DRS, MMS, BCRS, MNS). It counts as in vivo, human. The note with it: for DRS score: basal 3.5±1.75; for MMS score: basal 3.5±2.65. On the procedure: All the SDAT patients met the DSM-III criteria for primary degenerative dementia and rigorous diagnostic criteria for SDAT. […] In LOSDAT, the onset of the disease occurred after the age of 60. The degree of severity of the dementia was assessed with Hasegawa's Dementia Rating Scale (DRS) (Hasegawa K., Inoue K. "An investigation of dementia rating scale for the elderly." Seishinigaku 16:965-969, 1974), Folstein's Mini-Mental State (MMS) Test (Folstein M. F., Folstein S., McHugh P. "Mini-mental state: a practical method for grading the cognitive state of patients for the clinician." J. Psychiat. Res. 12:189-198, 1975) and a modified model of the Brief Cognitive Rating Scale (BCRS) and Functional Assessment Stages (FAST) of Reisberg (Reisberg B., Ferris S. H., De Leon M. J. "Senile dementia of the Alzheimer type: Diagnosis and differential diagnostic features with special reference to functional assessment staging." in: Traber J., Gispen W. H. (Ed). Senile dementia of the Alzheimer type. pp 18-37, Springer-Verlag, Berlin, 1985). Concomitant pathology other than SDAT was discarded under a careful screening of the subjects with CT Scan, EEG, ECG and complementary laboratory data. Current diagnosis or history of SDM-III major affective disorder or schizophrenia as well as history of endocrine disease were criteria for exclusion. All of the control subjects were free of psychiatric and endocrine illness. All subjects included had been drug-free for a minimum of 7 days before testing.
(§1) Simultaneously to the performance of the GRF test, electroencephalograhic and cardiovascular monitorization of the subjects were carried out. Twenty-four hours prior to the GRF test, and 3, 12, 24 and 48 hours after testing, the DRS, MMS, BCRS, and FAST tests were performed to evaluate mental performance and behavior. Additional monitoring of GRF effects was done by global physician assessment and evaluation of the Mihara Nursing Scale (MNS). This test was developed to be used as a non-cognitive parametric indicator involving several items, including quantification of food intake, locomotion, social interaction, and complementary laboratory data.
(§2) The results were analyzed statistically by the Student's test, analysis of variance (ANOVA) and the Mann-Whitney test using a NEC PC-9801VM2 computer.

The subject of series [2] is controls and SDAT subjects. Put plainly: Electroencephalographic monitoring during the GRF test. Format: in vivo, human. The note with it: for EEG amplitude, sequential analysis (increase) / EEG frequency, sequential analysis (fall): 15 to 45 minutes after injection. On the procedure:
as §1, §2

Take growth hormone releasing factor [GRF]: the DRS score in series [1] (3 hr after GRF test) is reported as 5.5±2.10; in series [1] (12 hr after GRF test), 6.75±3.25; in series [1] (24 hr after GRF test) it was 4.35±1.95; in series [1] (48 hr after GRF test), 3.5±1.55. Further, the MMS score is on record as 5.15±3.75 in series [1] (3 hr after GRF test), 5.5±3.65 in series [1] (12 hr after GRF test), 4.5±2.75 in series [1] (24 hr after GRF test) and 4.35±2.75 in series [1] (48 hr after GRF test). Besides, the “duration of behavioral changes” value in series [1] (BCRS and MNS changes after GRF test) is “transient”. In addition, the “BCRS Axis 4 (orientation) affected by GRF” value in series [1] (after GRF test) was found to be 30%. In addition, the “BCRS Axis 7 (psychomotor) affected by GRF” value in series [1] (after GRF test) is given as 50%. Moreover, the “BCRS Axis 8 (mood and behavior) affected by GRF” value in series [1] (after GRF test) turned out to be 40%. The same substance came in with a bulimic syndrome developed in series [1] (after GRF test) of 2 patients. The “appetite increased (MNS), share of subjects” value in series [1] (controls) is 30%; in series [1] (patients) it was 45%. Also, the “social interaction improved (MNS), share of subjects” value in series [1] (patients) was found to be 40%. Further, the entries for the “EEG amplitude, sequential analysis (increase)” value in series [2] (SDAT patients) and in series [2] (control subjects) were 52.5±9.89 uV and 55.60±6.40 uV, respectively. Further, the entries for the “EEG frequency, sequential analysis (fall)” value in series [2] (SDAT patients) and in series [2] (control subjects) were 7.05±0.90 Hz and 8.75±0.25 Hz, respectively. Moreover, the “EEG basic rhythm frequency, global evaluation after testing” value worked out at 7.46±0.53 Hz in series [2] (SDAT, prior to GRF test 8.08±0.67 Hz) and 9.05±0.12 Hz in series [2] (controls, prior to GRF test 9.27±0.11 Hz). Moreover, the “EEG basic rhythm amplitude, global evaluation after testing” value is 43.69±5.12 uV in series [2] (SDAT, prior to GRF test 40.80±6.06 uV) and 49.67±5.75 uV in series [2] (controls, prior to GRF test 47.36±3.36 uV).
